Converted amounts (≈) assume the structure as drawn. Like-named read-outs stand apart in the source and are kept apart here. Where only a bound is given, the exact number is not on record here.

What all share (assay): MIC by agar dilution method
What all share (type): cell-based
A general note: In agar dilution, organisms are placed on agar that contains the substance at set levels.

The subject of experiment [1] is Staphylococcus aureus 209P. To be noted: 37° C., 18 hours. Here is the method:
(§1) The MIC is measured by an agar dilution method based on the standard method of the Japanese Society of Chemotherapy (Japanese Society of Chemotherapy: The Revised Method of Determination of MIC Values, Chemotherapy 22, 1126-1128, […]). Specifically, the antibiotic is serially diluted with a 1/50 M phosphate buffer at a pH of 7.3 to prepare a twofold dilution series. One milliliter of each dilution and 9 ml of an agar medium (Heart Infusion Agar; a product of Difco Laboratories) are mixed and allowed to solidify in a Petri dish having a diameter of 9 cm. One loopful of the stock culture of the test microbe is inoculated in trypto-soy buillon (a product of Eiken Kagaku Co., Ltd.) and incubated at 37° C. for 18 hours. The resulting culture broth is diluted to a concentration of about 10^6 cells/ml with physiological saline and inoculated on the agar plate by means of a microplanter.

In the next experiment the test system is Serratia marcesceus S18. Particulars: 37° C., 18 hours. Here is the method:
as §1

The next experiment concerns Ps. aeruginosa NCTC10490. To be noted: Pseudomonas aeruginosa, 37° C., 18 hours. The protocol: as §1
A further experiment deals with P. sp. P22. Particulars: 37° C., 18 hours. The protocol: as §1
The test system of a further experiment is E. coli RGN823. To be noted: Escherichia coli, 37° C., 18 hours. Here is the method: as §1
Experiment [2] deals with Enterobacter aerogenes E19. To be noted: Klebsiella aerogenes, 37° C., 18 hours. The protocol:
as §1

The next experiment relates to Comamonas terrigena B996. Particulars: 37° C., 18 hours. The protocol:
as §1

Another experiment concerns S. aureus Russell. To be noted: Staphylococcus aureus; S. aureus Russell; agar dilution, 37° C., 18 hours; read-out: MIC. Here is the method:
as §1

The test system of the next experiment is S. epidermidis. To be noted: Staphylococcus epidermidis, 37° C., 18 hours. The protocol: as §1
In a further experiment the test system is Ent. cloacae 45. To be noted: Enterobacter cloacae, 37° C., 18 hours. The protocol: as §1
The next experiment deals with Ent. sp. E8. Here is the method: as §1
In another experiment the test system is P. vulgaris GN76. Particulars: Proteus vulgaris, 37° C., 18 hours. The protocol:
as §1

For experiment [3], the system named is Pseudomonas aenginosa IFO3445. To be noted: 37° C., 18 hours. Here is the method:
as §1

Another experiment concerns Sarcina lutea S19. Particulars: Micrococcus luteus, 37° C., 18 hours. Here is the method: as §1
The test system of another experiment is Escherichia coli K-12. Here is the method:
as §1

The test system of another experiment is Providencia sp. P8. The protocol:
as §1

Experiment [4] relates to Klebsiella pneumoniae K13. To be noted: 37° C., 18 hours. The protocol: as §1
Experiment [5] deals with Bacillus subtillis ATCC 6633. Particulars: ATCC6633; Bacillus subtillis ATCC 6633; agar dilution, 37° C., 18 hours; read-out: MIC. Here is the method: as §1
The subject of the next experiment is Ser. marcesceus T55. To be noted: 37° C., 18 hours. Here is the method:
as §1

Another experiment deals with S. aureus Smith. Particulars: Staphylococcus aureus, 37° C., 18 hours. Here is the method: as §1
The test system of the next experiment is Proteus mirabilis P6. The protocol:
as §1

Experiment [6] concerns Citrobacter Freundii GN346. Particulars: 37° C., 18 hours. Here is the method:
as §1

For the next experiment, the system named is Alcaligenes Faecolis A1. Here is the method: as §1
Another experiment relates to P. rettgeri P7. To be noted: Providencia rettgeri. Here is the method:
as §1

Take `CC(O)[C@@H]1C(=O)N2C(C(=O)O)=C(SCCNC(=O)CCNC(=O)C(O)C(C)(C)CO)C[C@H]12` (relative stereo) [OA-6129B1]: the MIC in experiment [1] is 0.1 µg/mL (≈ 0.211 µM); in the experiment on Serratia marcesceus S18, 6.25 µg/mL (≈ 13.2 µM); with Ps. aeruginosa NCTC10490, greater than 50 µg/mL; against P. sp. P22, greater than 50 µg/mL; in the experiment with E. coli RGN823, 0.39 µg/mL (≈ 0.824 µM); in experiment [2], 3.13 µg/mL (≈ 6.61 µM). Besides, the MIC in the experiment on Comamonas terrigena B996 was found to be 0.012 µg/mL (≈ 0.0253 µM); with S. aureus Russell, 0.78 µg/mL (≈ 1.65 µM); with S. epidermidis it was 0.78 µg/mL (≈ 1.65 µM); in the experiment on Ent. cloacae 45, 6.25 µg/mL (≈ 13.2 µM); in the experiment on Ent. sp. E8 (Ent. sp. E8, agar dilution, 37° C., 18 hours, read-out: MIC), 0.39 µg/mL (≈ 0.824 µM); against P. vulgaris GN76 it was 50 µg/mL (≈ 106 µM). Moreover, the MIC in experiment [3] was greater than 50 µg/mL; against Sarcina lutea S19, 0.1 µg/mL (≈ 0.211 µM); with Escherichia coli K-12 (K12, Escherichia coli K-12, agar dilution, 37° C., 18 hours, read-out: MIC), 0.39 µg/mL (≈ 0.824 µM); with Providencia sp. P8 (Providencia sp. P8, agar dilution, 37° C., 18 hours, read-out: MIC) it was 0.2 µg/mL (≈ 0.422 µM); in experiment [4], greater than 50 µg/mL; in [5] it was 0.05 µg/mL (≈ 0.106 µM). In addition, the MIC came out at 12.5 µg/mL (≈ 26.4 µM) in the experiment on Ser. marcesceus T55; 1.56 µg/mL (≈ 3.29 µM) against S. aureus Smith; 0.78 µg/mL (≈ 1.65 µM) with Proteus mirabilis P6 (Proteus mirabilis P6, agar dilution, 37° C., 18 hours, read-out: MIC); 6.25 µg/mL (≈ 13.2 µM) in experiment [6]; 0.2 µg/mL (≈ 0.422 µM) with Alcaligenes Faecolis A1 (Alcaligenes Faecolis A1, agar dilution, 37° C., 18 hours, read-out: MIC); 0.78 µg/mL (≈ 1.65 µM) in the experiment on P. rettgeri P7 (P. rettgeri P7, agar dilution, 37° C., 18 hours, read-out: MIC).

Regarding `Cc1nnc(SCC2=C(C(=O)O)N3C(=O)[C@@H](NC(=O)Cn4cnnn4)[C@H]3SC2)s1` [CEZ, reference compound], the MIC is 0.1 µg/mL (≈ 0.22 µM) in [1]; greater than 400 µg/mL against Serratia marcesceus S18; greater than 400 µg/mL in the experiment with Ps. aeruginosa NCTC10490; greater than 400 µg/mL with P. sp. P22; 1.56 µg/mL (≈ 3.43 µM) in the experiment on E. coli RGN823; greater than 400 µg/mL in [2]. For the same compound, the MIC with Comamonas terrigena B996 is 0.05 µg/mL (≈ 0.11 µM); with S. aureus Russell, 0.2 µg/mL (≈ 0.44 µM); in the experiment with S. epidermidis it was 0.2 µg/mL (≈ 0.44 µM); against Ent. cloacae 45, greater than 400 µg/mL; in the experiment with Ent. sp. E8 (18 h), 3.13 µg/mL (≈ 6.89 µM); against P. vulgaris GN76, greater than 400 µg/mL. Further, the MIC is greater than 400 µg/mL in [3]; 0.39 µg/mL (≈ 0.858 µM) in the experiment with Sarcina lutea S19; 0.78 µg/mL (≈ 1.72 µM) with Escherichia coli K-12 (Escherichia coli, K12, 18 h); 1.56 µg/mL (≈ 3.43 µM) against Providencia sp. P8 (Providencia, SP.P8, 18 h); 25 µg/mL (≈ 55 µM) in experiment [4]; 0.1 µg/mL (≈ 0.22 µM) in experiment [5]. Besides, the MIC was greater than 400 µg/mL in the experiment on Ser. marcesceus T55; 0.2 µg/mL (≈ 0.44 µM) against S. aureus Smith; 3.13 µg/mL (≈ 6.89 µM) in the experiment with Proteus mirabilis P6 (Proteus mirabilis, P6, 18 h); greater than 400 µg/mL in experiment [6]; 3.13 µg/mL (≈ 6.89 µM) against Alcaligenes Faecolis A1 (Alcaligenes, 18 h); 3.13 µg/mL (≈ 6.89 µM) against P. rettgeri P7 (P7, 18 h).

In general, MIC refers to the lowest concentration that inhibits growth of the organism.

These data come from patent US4426390A, “Novel β-lactam compounds, process for producing thereof, and use thereof as medicines” (Sanraku-Ocean Co., Ltd., priority 1980, dated 1984).
